In patent publication US9347937B2, “Vaccine comprising Amb a 1 peptides for use in the treatment of ragweed allergy” (Circassia Limited, priority 2008, dated 2016):
One block for each sequence: values may come before it. No end group written: not given here.

Key:
[1] = test system: blood basophils from ragweed allergic subjects; assay: Histamine release assay (Immunotech Histamine Release Immunoassay kit); details: for Subjects with histamine release >15% of positive control: 43 or 20 subjects, highest dose tested 10 μg/ml
Description: Peptides or combinations of peptides that induce histamine release frequently may be considered unsuitable for inclusion in the peptide vaccine.
Histamine release requires the crosslinking of adjacent specific IgE molecules on the surface of the basophil.
Histamine release from fresh peripheral whole blood from ragweed allergic subjects was evaluated. Peripheral blood basophils were used as a surrogate for tissue mast cells which were not practical to assay.
Histamine release in response to whole ragweed allergen extract was measured in each subject to confirm basophil sensitisation. A positive control, representing total histamine release, generated by freeze/thawing the cells twice, was included in each assay. A negative control for spontaneous histamine release was generated by incubating cells in buffer only.
The assay was performed using the Immunotech Histamine Release Immunoassay kit according to the manufacturer's instructions. Following the in vitro challenge of blood basophils with peptides, peptide mixes, whole allergen or buffer in microtitre plate wells, supernatants were removed and the histamine in the samples converted to acyl histamine. Acylated samples were tested by a competitive acyl histamine ELISA.
Peptides were assayed for their ability to induce histamine release over a 5 log 10 range (1 to 10,000 ng/ml). The concentration range assayed was selected based on theoretical in vivo doses of peptide that may be achieved during therapy. […] Whole ragweed allergen extract was used over a slightly higher concentration range (10 to 100,000 ng/ml).
Single measurements were performed for each dilution. After completion of the ELISA, individual histamine levels were determined by interpolation from the standard curve generated in the ELISA assay. Results from samples were adjusted to allow for dilution.

[2] = In vitro solubility testing in an acidic environment; format: physicochemical
Description: Accordingly, the inventors have determined that RGW03B is preferred over RGW03.
The modified peptides were tested for solubility and their ability to induce IL-10 from PBMC in the presence of the mixture of peptides identified in FIG. 1 (RGW01+RGW03B+RGW04A+RGW02+RGW05+RGW06A). Controls included the peptide mixture with no RGW07 variant and with whole Amb a 1 allergen.

[3] = pH 2.97, Table 6, RGW07 and variants, acidic environment
[4] = pH 2.97 0.1 mM HCl, 0.5% (w/v) 1-thioglycerol (ca. 46 mM), 230 mM trehalose

Sequence: AINNDKTIDGRGAKVE [RGW06A]
Maximum histamine release (% of positive control at 10 μg/mL) [1]: 0% | Mean histamine release of 43 or 20 subjects as a % of positive control at 10 μg/mL [1]: 1% | Subjects with histamine release >15% of positive control [1]: 0/43

Sequence: GEAAIKLTSSAGVLS [RGW07]
solubility in an acidic environment ([2]; acidic environment): poor solubility | solubility [2, 3]: 700 µg/mL | Maximum histamine release (% of positive control at 10 μg/mL) [1]: 0% | Mean histamine release of 43 or 20 subjects as a % of positive control at 10 μg/mL [1]: 1% | Subjects with histamine release >15% of positive control [1]: 0/43

Sequence: GMIKSNDGPPI [RGW01]
Maximum histamine release (% of positive control at 10 μg/mL) [1]: 0% | Mean histamine release of 43 or 20 subjects as a % of positive control at 10 μg/mL [1]: 1% | Subjects with histamine release >15% of positive control [1]: 0/43

Sequence: GSSQIWIDHSSLSKS [RGW02]
Maximum histamine release (% of positive control at 10 μg/mL) [1]: 0% | Mean histamine release of 43 or 20 subjects as a % of positive control at 10 μg/mL [1]: 1% | Subjects with histamine release >15% of positive control [1]: 0/43

solubility [2, 4]: < 620 µg/mL
Sequence: KDLLENGAIFVTSG [RGW03]

Sequence: KEGTLRFAAAQNRP [RGW05]
Maximum histamine release (% of positive control at 10 μg/mL) [1]: 0% | Mean histamine release of 43 or 20 subjects as a % of positive control at 10 μg/mL [1]: 0% | Subjects with histamine release >15% of positive control [1]: 0/43

solubility [2, 3]: 1550 µg/mL
Sequence: KGEAAIKLTSSAGVLSK [RGW07C]

Sequence: KGEAAIKLTSSAGVLSKK [RGW07D]
solubility [2, 3]: 4260 µg/mL | Maximum histamine release (% of positive control at 10 μg/mL) [1]: 0% | Mean histamine release of 43 or 20 subjects as a % of positive control at 10 μg/mL [1]: 3% | Subjects with histamine release >15% of positive control [1]: 0/20

Sequence: RDLLENGAIFLPSG [RGW03B]
solubility [2, 4]: 3850 µg/mL | Maximum histamine release (% of positive control at 10 μg/mL) [1]: 0% | Mean histamine release of 43 or 20 subjects as a % of positive control at 10 μg/mL [1]: 1% | Subjects with histamine release >15% of positive control [1]: 0/43

Sequence: SAGMIPAEPGEA [RGW04A]
Maximum histamine release (% of positive control at 10 μg/mL) [1]: 0% | Mean histamine release of 43 or 20 subjects as a % of positive control at 10 μg/mL [1]: 0% | Subjects with histamine release >15% of positive control [1]: 0/43
